Data on four compounds can be found in patent US4281121A, “1,3,4-Thiadiazole-2-carboxylic acid derivatives, process for making the same and fungicidal and nematocidal compositions containing same” (Schering Aktiengesellschaft, priority 1978, dated 1981).

Structures are written as SMILES.

One assay concerns Penicillium digitatum. Put plainly: Inhibition of fungus in a nutrient solution: Penicillium digitatum.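 Also: 0 means no fungus growth and higher grades mean more surface covered.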 Type of assay: cell-based. The conditions noted are these: 6 days at 21-23° C.
A further assay relates to Botrytis cinerea. Put plainly: Inhibition of fungus in a nutrient solution: Botrytis cinerea.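 Also: 0 means no fungus growth and higher grades mean more surface covered.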 The conditions noted are these: 6 days at 21-23° C. The format is cell-based.
A further assay deals with Alternaria solani. Put plainly: Inhibition of fungus in a nutrient solution: Alternaria solani.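 Also: 0 means no fungus growth and higher grades mean more surface covered.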 The format is cell-based. The conditions noted are these: 6 days at 21-23° C.
A further assay concerns Fusarium avenaceum. Put plainly: Inhibition of fungus in a nutrient solution: Fusarium avenaceum.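 Also: 0 means no fungus growth and higher grades mean more surface covered.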 Type of assay: cell-based. The conditions noted are these: 6 days at 21-23° C. As to the method: Inhibition of fungus in a nutrient solution
20 ml of a nutrient solution of grape juice and water (1:1) were filled into a glass vial of a 100 ml capacity and were mixed with the pulverulent active agents which appear from the subsequent table. Thereafter, the solution was inoculated with conidia (spores) of the test fungi.
After an incubation time of 6 days at 21° to 23° C. the fungus development on the surface of the nutrient solution was evaluated. The test fungi used were the following: Penicillium digitatum, Botrytis cinerea, Alternaria solani, Fusarium avenaceum.
The evaluation was carried out at a scale from 0 to 5 as follows: […]

The subject of a further assay is Pythium ultimum. Put plainly: Threshold concentration test for use of the compounds against Pythium ultimum (infested soil, garden peas). The format is in vivo. Also on record: key to root evaluation (1-4): 4: white roots without fungous necrosis; 3: white roots, minor fungous necrosis; 2: brown roots, already more pronounced fungous necrosis; 1: heavy fungous necrosis, roots rotted. The settings on record: for root evaluation (1-4): 3 weeks; for number of sound peas: 20 grains per dish, 3 weeks at 20-24° C. The gist of the method:
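Pulverulent agents at 20% concentration mixed evenly into soil heavily infested with Pythium ultimum, then garden peas ('Wunder von Kelvedon', 20 per dish) sown at once. After three weeks at 20–24 °C in a hothouse, sound peas counted and roots scored on a 1–4 scale.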

Consider `COC(=O)c1nnc(S(C)(=O)=O)s1` [5-methylsulfonyl-1,3,4-thiadiazole-2-carboxylic acid-methylester], for which the “fungus development on the surface of the nutrient solution (0-5)” value (from here on “fungus development on the surface”) in the assay on Penicillium digitatum (0.002%) was 1; with Penicillium digitatum (0.004%), 0; with Botrytis cinerea (0.002%), 1; with Botrytis cinerea (0.004%) it was 0; in the assay with Alternaria solani (0.002%), 1; in the assay with Alternaria solani (0.004%), 0. Also, the “fungus development on the surface” value in the assay on Fusarium avenaceum (0.002%) and with Fusarium avenaceum (0.004%) was 0 each time.

On to `O=C1C2CC=CCC2C(=O)N1SC(Cl)(Cl)Cl` (stereo not drawn) [N-trichloromethylmercapto-tetrahydro-phthalimide, reference compound], for which the “root evaluation (1-4)” value in the assay on Pythium ultimum (20 mg/l soil) is reported as 1; with Pythium ultimum (40 mg/l soil), 1; in the assay with Pythium ultimum (80 mg/l soil), 2. For the same compound, the “number of sound peas” value in the assay on Pythium ultimum (20 mg/l soil) is recorded as 1; in the assay with Pythium ultimum (40 mg/l soil) it was 2; in the assay on Pythium ultimum (80 mg/l soil), 8. Also, the “fungus development on the surface” value in the assay with Penicillium digitatum (0.002%), in the assay on Penicillium digitatum (0.004%), with Botrytis cinerea (0.002%), in the assay with Botrytis cinerea (0.004%), in the assay with Alternaria solani (0.002%) and in the assay with Alternaria solani (0.004%) was 4 (30 to 60% of the surface covered by the fungus turf) each time.

For the compound `O=C1c2ccccc2C(=O)N1SC(Cl)(Cl)Cl` [N-trichloromethylmercapto-phthalimide, reference compound], the “fungus development on the surface” value with Penicillium digitatum (0.002%) is reported as 4 (30 to 60% of the surface covered by the fungus turf); in the assay with Penicillium digitatum (0.004%) it was 4 (30 to 60% of the surface covered by the fungus turf); in the assay with Botrytis cinerea (0.002%) it was 4 (30 to 60% of the surface covered by the fungus turf); with Botrytis cinerea (0.004%), 3 (10 to 30% of the surface covered by the fungus turf); in the assay on Alternaria solani (0.002%), 4 (30 to 60% of the surface covered by the fungus turf); in the assay with Alternaria solani (0.004%) it was 4 (30 to 60% of the surface covered by the fungus turf). Moreover, the “fungus development on the surface” value in the assay with Fusarium avenaceum (0.002%) and with Fusarium avenaceum (0.004%) was 4 (30 to 60% of the surface covered by the fungus turf) each time.

`N#Cc1c(Cl)c(Cl)c(Cl)c(C#N)c1Cl` [Tetrachloroisophthalodinitrile, reference compound]: the “fungus development on the surface” value with Penicillium digitatum (0.002%) was 3 (10 to 30% of the surface covered by the fungus turf); in the assay on Penicillium digitatum (0.004%), 2 (5 to 10% of the surface covered by the fungus turf); in the assay with Botrytis cinerea (0.002%) it was 5 (60 to 100% of the surface covered by the fungus turf); with Botrytis cinerea (0.004%), 4 (30 to 60% of the surface covered by the fungus turf); in the assay with Alternaria solani (0.002%) it was 5 (60 to 100% of the surface covered by the fungus turf); with Alternaria solani (0.004%), 5 (60 to 100% of the surface covered by the fungus turf). The “fungus development on the surface” value with Fusarium avenaceum (0.002%) was 4 (30 to 60% of the surface covered by the fungus turf); in the assay with Fusarium avenaceum (0.004%) it was 3 (10 to 30% of the surface covered by the fungus turf).
